# Entries after “also recorded” stand apart in the source; their conditions may differ.
# How the values were obtained:
# [1] = system: macrophages (SR-mediated ox-LDL uptake); experiment: SR-mediated ox-LDL uptake; assay type: cell-based; conditions: EIPA 25 μM, 1 hr; ox-LDL 50 μg/ml
# Description: (§1) Foam cell formation: THP-1 macrophages or bone marrow-derived macrophages were treated with vehicle, known macropinocytosis stimulators (PMA 1 μM, M-CSF 100 ng/mL or PDGF 200 ng/mL)+/− macropinocytosis inhibitors (imipramine 10 μM or EIPA 25 μM; 1 hour pre-incubation) in the presence of nLDL, ox-LDL, or ac-LDL ([…]) for 24 hours. Cells were fixed in 2% PFA and stained with Nile Red (50 ng/mL) for 7 min. Fluorescence intensity was measured using the FL3 channel for Nile Red (Ex: 488 nm, Em: 670 nm).
# RAW 264.7 macrophages [2] = experiment: Clathrin-mediated endocytosis of FITC-transferrin; assay type: cell-based; conditions: EIPA 25 μM, 1 hr; FITC-transferrin 1 μg/ml
# Description: Clathrin- and caveolin-mediated endocytosis: Receptor-mediated uptake of FITC-transferrin (1 μg/mL; clathrin-mediated endocytosis) and Alexa Fluor 488-albumin ([…]; caveolin-mediated endocytosis) was investigated in RAW 264.7 macrophages following their incubation with ±EIPA (25 μM; 1 hour pre-incubation). Fluorescence intensity was measured using the FL1 channel for FITC and Alexa Fluor 488 (Ex: 488 nm, Em: 530 nm).
# RAW 264.7 macrophages [3] = experiment: Cell viability assay, LIVE/DEAD Fixable Far Red dye; assay type: cell-based; conditions: EIPA 25 μM, 1 hr, then PMA 4 hours
# Description: Cell viability assay: RAW 264.7 macrophages were plated in 24 well plates at a density of 1×10^6 cells/mL. Twenty four hours later, macrophages were pre-incubated with vehicle or EIPA (25 μM, 1 hr) and treated with PMA (1 μM, 4 hrs). Cells were fixed in 2% PFA, resuspended in FACS buffer (2% BSA and 0.01% sodium azide in PBS), and stained with the LIVE/DEAD™ Fixable Far Red dye to identify live cells. Fluorescence intensity was measured using the FL4 channel (Ex: 650 nm, Em: 660 nm).
# [4] = system: hypercholesterolemic mice (PCSK9-AAV-mediated LDLR knockdown); experiment: Atherosclerosis model: PCSK9-AAV, partial LCA ligation, Western diet; assay type: in vivo, mouse; conditions: for inhibition of atherosclerotic lesion area (ORO positive area, LCA): continuous infusion via subcutaneous osmotic pump
# Excerpt: Mice were given a single injection of AAV-PCSK9 (1×1011 VG) and fed a Western diet (Envigo, TD.88137, Indianapolis, Ind.). One week after AAV-PCSK9 injection, mice underwent partial carotid ligation surgery as previously described (67) and Western diet was continued for another 3 weeks. In separate experiments, mice were given a single injection of AAV-PCSK9 (1×1011 VG) and fed a Western diet for 16 weeks. Mice were anesthetized (isoflurane inhalation, 3%) and exsanguinated. Blood was collected from left ventricle using a heparinized syringe fitted with a 21 G needle. Aortic arch and carotid arteries were collected, and gross macroscopic images were acquired. For molecular histology studies, carotids and aortic arch were fixed in 4% paraformaldehyde (PFA), embedded in OCT compound and stored at −80° C. until use.
# ORO staining: Atherosclerosis development in carotid arteries and whole aorta were studied initially by gross imaging followed by Oil Red O (ORO) staining and plaque quantification. Briefly, the entire aorta was isolated, cleaned of peri-adventitial fat, fixed and imaged on the surface of black silicone-coated dissection dishes. Left carotid arteries were embedded in OCT and 10 μm thick cross-sections were prepared. The arteries were divided into 3 regions based on their distance from the aortic arch: proximal (0-400 μm), middle (2,000-2,400 μm) and distal (4,000-4,400 μm). Frozen sections and whole aortas were then stained with ORO solution (2%) and images were taken using light microscope equipped with a camera under 20× and 1.6× objective lens. The total area, lumen area and ORO positive area were measured for six sections/anatomical position per mouse using Image J software. The ratio of ORO positive area to arterial area is represented as plaque area. Plasma total cholesterol concentrations were determined by the Amplex™ Red Cholesterol Assay Kit (ThermoFisher, Rockford, Ill.). Plasma lipid profiles were obtained by column fractionation and measurements of fraction cholesterol content.
# Hematoxylin and Eosin (H&E) or Masson's trichrome staining: Frozen sections were also used for Hematoxylin and Eosin (H&E) or Masson's trichrome staining following standard procedures to evaluate the lesion size and collagen content, respectively.
# Orcein and Martius Scarlet Blue (OMSB) staining: OMSB was used for qualitative and quantitative analysis of atherosclerotic plaques as previously described. Briefly, left carotid arteries were dissected out, fixed in 4% buffered paraformaldehyde (pH=7.4) for at least 48 hr, and then routinely processed and embedded in paraffin (tissue processor TP1020; Leica, Wetzlar, Germany). Cross sections were cut every 5 m along the artery (starting from the proximal end) and mounted serially on silanized slides. Sections were stained and mounted automatically using Leica ST5010 Autostainer XL combined with Leica CV5030 Glass Coverslip. Deparaffinized sections through xylene and ethanol, and rehydrate to water. Postfix sections in Bouin's fixative at 56° C. for 1 hour, then rinse for 10 min in tap water to remove traces of picric acid. Stain with orcein for 20 min at 56° C. Differentiate in acidic alcohol for 2 min and then transfer to 96% ethanol for 30 s. Stain with martius yellow for 3 min and rinse in distilled water (2×2 min). Stain with crystal scarlet for 10 min. Differentiate with phosphotungstic acid 2 min and transfer to distilled water (for about 10 s). Stain with methyl blue 5 min. Rinse in acetic acid water 3 min, dehydrate through ethanol and carbol-xylene, clear in xylene, and mount in DPX or other resin. Staining of collagen with picrosirius red. The sections were examined and digital images of stained arteries were recorded using Olympus dotSlide system (Olympus, Tokyo, Japan). Segmentation algorithm allowed to distinguish vessel wall area, lumen area, plaque area, and area of the plaque occupied by collagen. The results were presented as areas of identified components in μm2. […]
# [5] = system: human aortic endothelial cells; experiment: qRT-PCR of SR-B1 mRNA expression; assay type: cell-based; conditions: EIPA 25 μM, 24 hr
# [6] = system: CD36-/-/SR-A-/- BMDM overexpressing HRasG12V; experiment: Ras (HRasG12V)-induced ox-/ac-LDL internalization, Nile Red FACS; assay type: cell-based, mouse; conditions: EIPA 25 μM, 1 hr; 50 μg/mL ox-LDL or ac-LDL, 24 hr
# Description: as §1
# HRasG12V mutant adenovirus (AD-HRasG12V) and control adenovirus (AD-GFP) were obtained from Dr. Brian Stansfield. Adenovirus multiplicity of infection (MOI) was calculated according to the OD260 of the adenovirus. Macrophages grown at 60-70% confluence were incubated in 500 μl basal medium containing Ad-GFP or Ad-HRasG12V adenovirus at 200 MOI (multiplicity of infection). After 4 hours, media was replaced with fresh complete tissue culture medium for a continuous culture. Cells were treated as indicated within 48 hours after viral transfection and collected for flow cytometry. Overexpression of adenovirus was confirmed by measuring GFP fluorescence. Fluorescence intensity was measured using the FL1 channel GFP (Ex: 488 nm, Em: 530 nm).
# [7] = EIPA vs vehicle, WT and CD36-/-/SR-A-/- mice
# [8] = EIPA vs vehicle, WT and CD36-/-/SR-A-/- mice, LCA
smiles,measurement,setting,value
"CCN(c1nc(N)c(C(=O)N=C(N)N)nc1Cl)C(C)C [EIPA, 5-(N-ethyl-N-isopropyl)amiloride]",SR-mediated ox-LDL uptake,[1],without inhibiting; also recorded: does not inhibit
same,clathrin-mediated transferrin endocytosis,RAW 264.7 macrophages [2],without inhibiting; also recorded: does not inhibit
same,Cytotoxicity (LIVE/DEAD Fixable Cell Stain),RAW 264.7 macrophages [3],no cell death
same,blood pressure (systolic),[4]; [7],not different
same,body weight,[4]; [7],not different
same,CD68+ macrophage staining,[4]; [8],significantly decreased
same,Collagen content (Masson's trichrome),[4]; [8],significantly decreased
same,atherosclerotic lesion area (H&E),[4]; [8],significantly decreased
same,"atherosclerosis (plaque area, OMSB, LCA)","[4]; female WT mice, PCSK9-AAV (LDLR-deficient), Western diet 4 weeks, EIPA via subcutaneously implanted minipump",inhibited atherosclerosis; also recorded: attenuates
same,"inhibition of atherosclerotic lesion area (ORO positive area, LCA)","[4]; male CD36-/-/SR-A-/- mice, Western diet 4 weeks",~80%
same,"inhibition of atherosclerotic lesion area (ORO positive area, LCA)","[4]; male WT mice, Western diet 4 weeks",~80%
same,atherosclerosis development,[4]; wild-type and SR knockout mice,reduces
same,SR-B1 mRNA levels,[5],does not increase
same,ox- and ac-LDL internalization (Nile Red fluorescence),[6],inhibits

# From patent US20210386754A1, “COMPOSITIONS AND METHODS FOR TREATING ATHEROSCLEROTIC VASCULAR DISEASE” (AUGUSTA UNIVERSITY RESEARCH INSTITUTE, INC., priority 2020, published 2021)
